Patent US12403135B2, “4H-pyrrolo[3,2-c]pyridin-4-one derivatives” (Bayer Aktiengesellschaft, priority 2019, dated 2025)
Where two headings read alike, the source gives them in different places.

Tests used:
Type in all cases: cell-based
[1] = molecular target: Ba/F3-EGFR-WT cells (BA/F3 wild type EGFR) (Homo sapiens, UniProt P00533); assay: BA/F3 (wild type) proliferation assay, Cell Titer-Glo; settings: Table 7; plated with 10 ng/mL EGF, without IL-3, 48 h; read-out: BA/F3 (wild type) IC50
Description: (§1) Plates were incubated at 37° C. for 48 h. Retrovirus was harvested by filtering the media supernatant through a 0.45 μm filter.
(§2) Ba/F3 cells purchased from DSMZ were grown in RPMI+10% FBS+10 ng/mL IL-3 and infected with filtered retroviral supernatant at a 1:2 dilution. Polybrene was added to a concentration of 8 μg/mL, plates were spun for 90 min, and incubated overnight at 37° C. 2 μg/mL puromycin was added to the infected cells 24 h after infection and cells were continually grown in the presence of puromycin and 10 ng/mL IL-3. Following stably expressing Ba/F3 cell lines were generated: Ba/F3-EGFR-WT.
For cell survival assays, Ba/F3 cells were grown to a density of 1-2 million cells per mL, spun down and resuspended in media without IL-3, and replated at a concentration 200,000-500,000 cells per mL. The cells ectopically expressing WT EGFR were plated with 10 ng/mL Millipore Culture grade EGF.
(§3) 24 hours later, cells were plated in 30 μL in a 384 well plate at a concentration of 3200 cells per well for cells assayed in the absence of IL-3. 100 nL of compound was added to each well using a 100 nL pin head, and plates were incubated at 37° C. for 48 h.
(§4) Cell viability was measured by adding 30 μL of Cell Titer-Glo Luminescent Cell Viability Reagent. Plates were sealed with Perkin Elmer Top-Seal, inverted several times to mix, and immediately centrifuged at 1000 rpm for 2 min. Plates were incubated in low light conditions for 8-10 min and luminescence was measured.

Ba/F3-EGFR-L858R cells = Ba/F3-EGFR-L858R cells (Homo sapiens, UniProt P00533, L858R, cells depend on it); assay: BA/F3 EGFR L858R cell survival assay, Cell Titer-Glo; settings: read-out: BA/F3 (EGFR L858R) IC50
Description: as §1
as §2, with “Ba/F3-EGFR-L858R, Ba/F3-EGFR-delLREA, (Ba/F3-vector-control).” for “Ba/F3-EGFR-WT.”
(§5) For cell survival assays, Ba/F3 cells were grown to a density of 1-2 million cells per mL, spun down and resuspended in media without IL-3, and replated at a concentration 200,000-500,000 cells per mL. The cells ectopically expressing pBABEpuro empty vector were plated with 10 ng/mL IL-3.
as §3, with “2 days” for “24 hours”, “50” for “30”, “4000” for “3200”, “absence of IL-3 and 2000 cells per well for cells (pBABE puro empty vector) assayed in the presence” for “absence”
as §4, with “20” for “30”, “Reagent diluted 1:3 in PBS.” for “Reagent.”

[2] = test system: Ba/F3-EGFR-delLREA cells (EGFR del19/delLREA (746-750), E746_A750del); assay: BA/F3 EGFR del19/delLREA (746-750) (E746_A750del) cell survival assay, Cell Titer-Glo
Description: as §1
as §2, with “Ba/F3-EGFR-L858R, Ba/F3-EGFR-delLREA, (Ba/F3-vector-control).” for “Ba/F3-EGFR-WT.”
as §5
as §3, with “2 days” for “24 hours”, “50” for “30”, “4000” for “3200”, “absence of IL-3 and 2000 cells per well for cells (pBABE puro empty vector) assayed in the presence” for “absence”
as §4, with “20” for “30”, “Reagent diluted 1:3 in PBS.” for “Reagent.”

[3] = molecular target: Ba/F3-EGFR-V769_D770 insASV cells (Homo sapiens, UniProt P00533, DUP767-769, cells depend on it); assay: BA/F3 (ASV) proliferation, EGFR Exon20 insertion mutation; settings: Table 9; EGFR Exon20 insertion mutations; read-out: BA/F3 (ASV) IC50
Description: as §1
as §2, with “Ba/F3-EGFR-V769_D770 insASV, Ba/F3-EGFR-D770_N771 insNPG, Ba/F3-EGFR-N771_P772 insH, Ba/F3-EGFR-H773_V774 insNPH, Ba/F3-EGFR-D770_N771 insSVD C797S, Ba/F3-EGFR-E746_A750del C797S, Ba/F3-EGFR-L858R C797S, Ba/F3-EGFR L861Q and Ba/F3-ERBB2-A775_G776insYVMA (Ba/F3-vector-control).” for “Ba/F3-EGFR-WT.”

[4] = test system: Ba/F3-EGFR-L858R C797S cells; assay: BA/F3 (EGFR L858R C797S) proliferation, acquired resistance; settings: Table 11, acquired resistance space
Description: as §1
as §2, with “Ba/F3-EGFR-V769_D770 insASV, Ba/F3-EGFR-D770_N771 insNPG, Ba/F3-EGFR-N771_P772 insH, Ba/F3-EGFR-H773_V774 insNPH, Ba/F3-EGFR-D770_N771 insSVD C797S, Ba/F3-EGFR-E746_A750del C797S, Ba/F3-EGFR-L858R C797S, Ba/F3-EGFR L861Q and Ba/F3-ERBB2-A775_G776insYVMA (Ba/F3-vector-control).” for “Ba/F3-EGFR-WT.”

[5] = molecular target: Ba/F3-EGFR-D770_N771 insNPG cells (Homo sapiens, UniProt P00533, INS772GNP, cells depend on it); assay: BA/F3 (insNPG) proliferation, EGFR Exon20 insertion mutation; settings: Table 9; EGFR Exon20 insertion mutations; read-out: BA/F3 (insNPG) IC50
Description: as §1
as §2, with “Ba/F3-EGFR-V769_D770 insASV, Ba/F3-EGFR-D770_N771 insNPG, Ba/F3-EGFR-N771_P772 insH, Ba/F3-EGFR-H773_V774 insNPH, Ba/F3-EGFR-D770_N771 insSVD C797S, Ba/F3-EGFR-E746_A750del C797S, Ba/F3-EGFR-L858R C797S, Ba/F3-EGFR L861Q and Ba/F3-ERBB2-A775_G776insYVMA (Ba/F3-vector-control).” for “Ba/F3-EGFR-WT.”

[6] = molecular target: Ba/F3-ERBB2-A775_G776insYVMA cells (Homo sapiens, UniProt P04626, DUP772-775, cells depend on it); assay: BA/F3 (ERBB2 A775_G776 insYVMA) proliferation; settings: Table 12; read-out: BA/F3 (ERBB2 A775_G776 insYVMA) IC50
Description: as §1
as §2, with “Ba/F3-EGFR-V769_D770 insASV, Ba/F3-EGFR-D770_N771 insNPG, Ba/F3-EGFR-N771_P772 insH, Ba/F3-EGFR-H773_V774 insNPH, Ba/F3-EGFR-D770_N771 insSVD C797S, Ba/F3-EGFR-E746_A750del C797S, Ba/F3-EGFR-L858R C797S, Ba/F3-EGFR L861Q and Ba/F3-ERBB2-A775_G776insYVMA (Ba/F3-vector-control).” for “Ba/F3-EGFR-WT.”

[7] = test system: Ba/F3-EGFR-D770_N771 insSVD C797S cells; assay: BA/F3 (EGFR D770_N771 insSVD C797S) proliferation, acquired resistance; settings: Ba/F3 EGFR-D770-N771ins_SVD; Table 11; acquired resistance space
Description: as §1
as §2, with “Ba/F3-EGFR-V769_D770 insASV, Ba/F3-EGFR-D770_N771 insNPG, Ba/F3-EGFR-N771_P772 insH, Ba/F3-EGFR-H773_V774 insNPH, Ba/F3-EGFR-D770_N771 insSVD C797S, Ba/F3-EGFR-E746_A750del C797S, Ba/F3-EGFR-L858R C797S, Ba/F3-EGFR L861Q and Ba/F3-ERBB2-A775_G776insYVMA (Ba/F3-vector-control).” for “Ba/F3-EGFR-WT.”

[8] = test system: Ba/F3-EGFR-E746_A750del C797S cells; assay: BA/F3 (EGFR E746_A750del C797S) proliferation, acquired resistance; settings: Table 11, acquired resistance space
Description: as §1
as §2, with “Ba/F3-EGFR-V769_D770 insASV, Ba/F3-EGFR-D770_N771 insNPG, Ba/F3-EGFR-N771_P772 insH, Ba/F3-EGFR-H773_V774 insNPH, Ba/F3-EGFR-D770_N771 insSVD C797S, Ba/F3-EGFR-E746_A750del C797S, Ba/F3-EGFR-L858R C797S, Ba/F3-EGFR L861Q and Ba/F3-ERBB2-A775_G776insYVMA (Ba/F3-vector-control).” for “Ba/F3-EGFR-WT.”

[9] = test system: HCC-827 cells (EGFRex19del); assay: HCC-827 cell proliferation, Cell Titer Glo, 72 h; settings: Homo sapiens, HCC827, 72 h, Table 12, several values per example
Description: (§6) HCC-827 cells were purchased from ATCC. 400 HCC-829 cells per well were seeded in growth medium (RPMI1640, 10% FCS) in a 384-well plate (CORNING #3571). Seed reference plate for time zero determination on the same day. All plates were incubated overnight at 37° C. After 24 hours, test compound were added in 7-step dilution using HP Compound printer and incubated at 37° C. for 72 h. After 3 days, 30 μL/well CTG solution (Promega Cell Titer Glo solution; catalog #G755B and G756B) were added to each well, incubated for 30 minutes and the plate were read on PheraStar. Proliferation is calculated after subtracting time zero luminescence values from day 4 values and comparing to untreated wells.
The IC50 values were determined using the four parameter fit.

PC9 cells (EGFRex19del) = assay: PC9 cell proliferation, Cell Titer Glo, 72 h; settings: Table 12, several values per example
Description: as §6, with “PC9” for “HCC-827”, “PC9” for “HCC-829”, “(DMEM,” for “(RPMI1640,”, “wells. The IC50 values were determined using the four parameter fit.” for “wells.”

Ba/F3-EGFR L861Q cells = assay: BA/F3 (EGFR L861Q) proliferation, uncommon EGFR mutation; settings: Table 10, classical activating and uncommon EGFR mutations
Description: as §1
as §2, with “Ba/F3-EGFR-V769_D770 insASV, Ba/F3-EGFR-D770_N771 insNPG, Ba/F3-EGFR-N771_P772 insH, Ba/F3-EGFR-H773_V774 insNPH, Ba/F3-EGFR-D770_N771 insSVD C797S, Ba/F3-EGFR-E746_A750del C797S, Ba/F3-EGFR-L858R C797S, Ba/F3-EGFR L861Q and Ba/F3-ERBB2-A775_G776insYVMA (Ba/F3-vector-control).” for “Ba/F3-EGFR-WT.”

[10] = Table 8, without IL-3, 48 h, read-out: BA/F3 (EGFR del19/delREA (746-750) IC50)
[11] = Table 10, classical activating and uncommon EGFR mutations
[12] = Table 10, classical activating and uncommon EGFR mutations, read-out: BA/F3 (EGFR E746_A750del) IC50

Sequence of Ba/F3-EGFR-L858R cells (P00533 whole entry L858R): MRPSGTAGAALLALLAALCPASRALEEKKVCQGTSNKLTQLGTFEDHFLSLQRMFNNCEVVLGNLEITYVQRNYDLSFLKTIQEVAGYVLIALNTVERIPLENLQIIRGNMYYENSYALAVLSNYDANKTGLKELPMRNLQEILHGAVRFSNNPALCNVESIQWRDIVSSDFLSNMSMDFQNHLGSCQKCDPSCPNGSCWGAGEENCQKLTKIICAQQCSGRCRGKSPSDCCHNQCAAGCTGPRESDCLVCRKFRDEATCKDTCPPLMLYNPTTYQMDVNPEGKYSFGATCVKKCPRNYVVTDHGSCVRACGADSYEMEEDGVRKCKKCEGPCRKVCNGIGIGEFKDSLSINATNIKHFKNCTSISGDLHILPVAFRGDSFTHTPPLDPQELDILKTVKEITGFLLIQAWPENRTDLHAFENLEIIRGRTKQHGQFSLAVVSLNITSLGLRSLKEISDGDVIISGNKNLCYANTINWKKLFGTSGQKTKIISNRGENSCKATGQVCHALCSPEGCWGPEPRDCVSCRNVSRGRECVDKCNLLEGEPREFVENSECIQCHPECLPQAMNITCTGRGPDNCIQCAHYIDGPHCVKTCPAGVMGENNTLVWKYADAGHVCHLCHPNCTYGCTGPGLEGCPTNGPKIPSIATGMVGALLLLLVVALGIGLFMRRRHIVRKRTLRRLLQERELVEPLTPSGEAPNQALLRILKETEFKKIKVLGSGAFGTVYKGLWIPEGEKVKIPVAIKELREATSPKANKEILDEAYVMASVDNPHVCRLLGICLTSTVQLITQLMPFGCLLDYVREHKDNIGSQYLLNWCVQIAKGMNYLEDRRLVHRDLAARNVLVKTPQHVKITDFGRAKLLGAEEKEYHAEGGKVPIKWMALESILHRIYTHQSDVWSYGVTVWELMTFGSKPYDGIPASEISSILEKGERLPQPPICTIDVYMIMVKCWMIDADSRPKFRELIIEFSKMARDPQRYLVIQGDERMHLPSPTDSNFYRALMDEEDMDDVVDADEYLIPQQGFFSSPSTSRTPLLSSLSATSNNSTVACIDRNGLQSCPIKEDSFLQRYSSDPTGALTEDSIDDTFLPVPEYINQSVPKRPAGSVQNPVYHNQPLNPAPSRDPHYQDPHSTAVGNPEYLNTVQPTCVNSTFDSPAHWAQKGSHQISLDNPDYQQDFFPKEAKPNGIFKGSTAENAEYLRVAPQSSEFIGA
Sequence of Ba/F3-EGFR-V769_D770 insASV cells (P00533 with tags, fused parts or gaps DUP767-769): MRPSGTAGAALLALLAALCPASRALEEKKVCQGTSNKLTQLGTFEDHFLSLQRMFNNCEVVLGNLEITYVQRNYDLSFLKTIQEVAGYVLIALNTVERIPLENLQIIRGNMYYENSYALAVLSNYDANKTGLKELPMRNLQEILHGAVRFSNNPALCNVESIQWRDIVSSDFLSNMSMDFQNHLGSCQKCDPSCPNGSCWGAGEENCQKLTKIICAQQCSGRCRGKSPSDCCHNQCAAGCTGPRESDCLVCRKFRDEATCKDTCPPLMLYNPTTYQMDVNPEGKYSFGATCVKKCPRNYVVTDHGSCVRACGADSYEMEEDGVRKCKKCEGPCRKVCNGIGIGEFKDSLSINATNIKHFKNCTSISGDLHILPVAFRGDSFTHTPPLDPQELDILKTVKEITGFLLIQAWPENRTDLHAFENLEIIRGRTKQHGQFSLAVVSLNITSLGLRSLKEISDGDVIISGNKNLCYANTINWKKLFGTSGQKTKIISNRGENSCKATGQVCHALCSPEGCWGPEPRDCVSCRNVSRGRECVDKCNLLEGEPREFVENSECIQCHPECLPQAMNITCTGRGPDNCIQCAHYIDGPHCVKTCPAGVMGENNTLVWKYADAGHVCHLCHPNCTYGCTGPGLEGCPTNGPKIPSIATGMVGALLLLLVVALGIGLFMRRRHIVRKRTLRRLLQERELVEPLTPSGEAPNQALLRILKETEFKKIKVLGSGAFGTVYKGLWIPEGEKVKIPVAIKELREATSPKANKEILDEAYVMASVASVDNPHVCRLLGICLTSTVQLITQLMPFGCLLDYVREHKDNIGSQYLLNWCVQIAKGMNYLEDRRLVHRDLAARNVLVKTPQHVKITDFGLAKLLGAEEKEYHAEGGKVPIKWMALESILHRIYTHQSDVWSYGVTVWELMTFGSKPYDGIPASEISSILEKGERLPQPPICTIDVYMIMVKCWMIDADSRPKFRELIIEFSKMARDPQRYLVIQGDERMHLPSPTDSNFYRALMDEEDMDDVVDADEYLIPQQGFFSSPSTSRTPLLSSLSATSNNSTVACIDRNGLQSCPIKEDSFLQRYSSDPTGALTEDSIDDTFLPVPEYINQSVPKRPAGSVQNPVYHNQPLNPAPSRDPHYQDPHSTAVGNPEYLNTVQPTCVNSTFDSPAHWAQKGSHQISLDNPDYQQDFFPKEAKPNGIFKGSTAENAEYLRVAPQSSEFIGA
Sequence of Ba/F3-EGFR-WT cells (BA/F3 wild type EGFR) (P00533 whole entry, change not shown): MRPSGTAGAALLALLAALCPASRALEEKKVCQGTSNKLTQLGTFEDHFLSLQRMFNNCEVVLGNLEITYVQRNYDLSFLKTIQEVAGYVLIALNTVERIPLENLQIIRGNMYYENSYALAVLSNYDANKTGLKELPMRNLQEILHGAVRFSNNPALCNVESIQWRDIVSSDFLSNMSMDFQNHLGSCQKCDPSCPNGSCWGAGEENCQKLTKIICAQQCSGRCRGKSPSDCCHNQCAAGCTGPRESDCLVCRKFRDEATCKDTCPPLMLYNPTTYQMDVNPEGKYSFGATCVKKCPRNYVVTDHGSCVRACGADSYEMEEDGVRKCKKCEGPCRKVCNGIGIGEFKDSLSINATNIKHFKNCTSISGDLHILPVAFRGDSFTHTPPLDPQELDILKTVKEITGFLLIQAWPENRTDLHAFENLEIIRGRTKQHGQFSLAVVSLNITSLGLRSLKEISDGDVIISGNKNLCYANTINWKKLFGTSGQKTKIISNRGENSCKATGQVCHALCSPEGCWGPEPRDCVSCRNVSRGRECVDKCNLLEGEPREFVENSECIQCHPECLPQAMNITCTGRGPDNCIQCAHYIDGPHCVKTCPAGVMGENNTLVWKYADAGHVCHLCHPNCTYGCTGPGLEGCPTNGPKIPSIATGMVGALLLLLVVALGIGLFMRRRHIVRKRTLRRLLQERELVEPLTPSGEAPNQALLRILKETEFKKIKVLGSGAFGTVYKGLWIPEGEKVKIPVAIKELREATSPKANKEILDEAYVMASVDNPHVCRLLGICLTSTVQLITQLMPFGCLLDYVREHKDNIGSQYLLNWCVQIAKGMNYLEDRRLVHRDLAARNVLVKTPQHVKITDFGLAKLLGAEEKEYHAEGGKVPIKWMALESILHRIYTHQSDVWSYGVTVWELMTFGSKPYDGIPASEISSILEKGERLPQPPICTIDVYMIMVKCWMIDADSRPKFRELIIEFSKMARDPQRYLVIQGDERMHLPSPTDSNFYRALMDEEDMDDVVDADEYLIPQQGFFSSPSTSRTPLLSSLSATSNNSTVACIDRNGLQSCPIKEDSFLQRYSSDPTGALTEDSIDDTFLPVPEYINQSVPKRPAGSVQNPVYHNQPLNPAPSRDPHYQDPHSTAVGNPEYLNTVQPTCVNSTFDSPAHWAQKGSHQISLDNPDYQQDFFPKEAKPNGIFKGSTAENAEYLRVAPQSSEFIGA
Sequence of Ba/F3-ERBB2-A775_G776insYVMA cells (P04626 with tags, fused parts or gaps DUP772-775): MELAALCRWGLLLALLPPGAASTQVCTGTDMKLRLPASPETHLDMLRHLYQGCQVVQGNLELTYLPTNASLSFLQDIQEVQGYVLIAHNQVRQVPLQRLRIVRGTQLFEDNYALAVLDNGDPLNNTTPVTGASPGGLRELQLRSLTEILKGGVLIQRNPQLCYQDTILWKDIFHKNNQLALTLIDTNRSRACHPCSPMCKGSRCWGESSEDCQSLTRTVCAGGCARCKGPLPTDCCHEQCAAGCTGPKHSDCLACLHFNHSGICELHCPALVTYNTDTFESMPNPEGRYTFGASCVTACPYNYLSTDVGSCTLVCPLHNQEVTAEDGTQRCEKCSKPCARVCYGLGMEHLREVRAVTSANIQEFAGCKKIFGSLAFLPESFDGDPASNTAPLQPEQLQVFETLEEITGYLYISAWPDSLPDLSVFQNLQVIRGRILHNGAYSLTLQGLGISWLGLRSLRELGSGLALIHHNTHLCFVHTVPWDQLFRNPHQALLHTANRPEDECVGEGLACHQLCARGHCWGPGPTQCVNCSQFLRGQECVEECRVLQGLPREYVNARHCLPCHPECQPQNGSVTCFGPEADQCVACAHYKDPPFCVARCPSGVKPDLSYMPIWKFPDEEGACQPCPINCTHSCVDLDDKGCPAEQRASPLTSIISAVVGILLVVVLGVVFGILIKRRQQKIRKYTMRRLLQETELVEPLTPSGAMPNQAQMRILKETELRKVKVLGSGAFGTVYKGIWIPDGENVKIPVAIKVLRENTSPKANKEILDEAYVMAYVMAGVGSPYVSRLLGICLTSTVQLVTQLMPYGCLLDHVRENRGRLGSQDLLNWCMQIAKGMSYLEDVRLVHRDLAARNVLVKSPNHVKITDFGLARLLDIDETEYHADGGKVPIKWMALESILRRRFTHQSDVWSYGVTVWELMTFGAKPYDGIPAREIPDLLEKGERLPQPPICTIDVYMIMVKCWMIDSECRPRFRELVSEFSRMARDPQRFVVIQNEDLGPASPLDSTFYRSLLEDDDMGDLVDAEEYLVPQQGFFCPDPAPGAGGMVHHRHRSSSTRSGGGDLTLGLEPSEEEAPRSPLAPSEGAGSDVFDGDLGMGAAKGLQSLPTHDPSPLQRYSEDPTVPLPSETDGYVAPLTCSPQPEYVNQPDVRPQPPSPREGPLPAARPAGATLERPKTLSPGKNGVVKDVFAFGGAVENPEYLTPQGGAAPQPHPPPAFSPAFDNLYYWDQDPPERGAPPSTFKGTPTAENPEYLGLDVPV

| Structure (SMILES) | GI50 [1] | GI50 (Ba/F3-EGFR-L858R cells; Table 8, without IL-3, 48 h) | IC50 [2, 10] | GI50 [3] | IC50 [4] | GI50 (Ba/F3-EGFR-L858R cells; [11]) | GI50 [5] | GI50 [6] | IC50 [7] | IC50 [8] | IC50 [9] | IC50 (PC9 cells (EGFRex19del); Homo sapiens, PC-9, 72 h) | IC50 (Ba/F3-EGFR L861Q cells) | IC50 [2, 12] | IC50 (PC9 cells (EGFRex19del)) |
| --- | --- | --- | --- | --- | --- | --- | --- | --- | --- | --- | --- | --- | --- | --- | --- |
| COC(C)(C)COc1cnccc1-c1[nH]c2c(c1Nc1cccc(F)c1CC(F)F)C(=O)NCC2 [Example 23, 3-{[2-(2,2-difluoroethyl)-3-fluorophenyl]amino}-2-[3-(2-methoxy-2-methylpropoxy)pyridin-4-yl]-1,5,6,7-tetrahydro-4H-pyrrolo[3,2-c]pyridin-4-one] | 388 nM | 3.2 nM | 0.26 nM |  |  |  |  |  |  |  |  |  |  |  |  |
| COc1c(Cl)cccc1Nc1c(-c2ccncc2OC[C@@H]2CCCN2C)[nH]c2c1C(=O)NCC2 [Example 48, 3-(3-chloro-2-methoxyanilino)-2-(3-{[(2S)-1-methylpyrrolidin-2-yl]methoxy}pyridin-4-yl)-1,5,6,7-tetrahydro-4H-pyrrolo[3,2-c]pyridin-4-one] |  |  |  | 15.1 nM | 1.06 nM | 1.39 nM | 10 nM | 21.7 nM | 17.2 nM | 0.543 nM | < 3 nM | 10 nM | 21.4 nM | 1.13 nM |  |
| COC(C)(C)COc1cnccc1-c1[nH]c2c(c1Nc1cccc(F)c1OC(F)F)C(=O)NCC2 [Example 19, 3-{[2-(difluoromethoxy)-3-fluorophenyl]amino}-2-[3-(2-methoxy-2-methylpropoxy)pyridin-4-yl]-1,5,6,7-tetrahydro-4H-pyrrolo[3,2-c]pyridin-4-one] | 870 nM | 4.7 nM | 0.32 nM |  |  |  |  |  |  |  |  |  |  |  |  |
| Cc1c(F)cccc1Nc1c(-c2ccncc2OC[C@@H]2CCCN2C)[nH]c2c1C(=O)NCC2 [Example 49, 3-(3-fluoro-2-methylanilino)-2-(3-{[(2S)-1-methylpyrrolidin-2-yl]methoxy}pyridin-4-yl)-1,5,6,7-tetrahydro-4H-pyrrolo[3,2-c]pyridin-4-one] |  |  |  | 284 nM | 7.83 nM | 22.7 nM | 115 nM | 231 nM | 198 nM | 3.01 nM |  | < 30 nM | 177 nM | 11.6 nM | 51.3 nM |
